The text below walks through data of patent publication US12448388B2, “PRMT5 inhibitors and uses thereof” (Gilead Sciences, Inc., priority 2023, dated 2025).

Bounds are passed on as bounds.

In the experiment the test system is HCT116 MTAP-deleted cell lines. Description: Cell viability assay (CellTiter-Glo, 7 days), HCT116 MTAP-deleted. Type of experiment: cell-based. Conditions: Homo sapiens, HCT-116; cell viability assay, HCT116 MTAP-deleted; class symbols; read-out: CC50. The procedure, abridged:
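Read-out was CellTiter-Glo luminescence after a 7-day incubation (37 °C, 5% CO2) of HCT116 cells, MTAP-deleted or WT, on dose-response compound plates. CC50 values come from each line; where marked *, selectivity is overstated because poor solubility impaired the WT CC50 measurement.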

For the molecule `CN(C(=O)c1cc2c(cc1F)nc(N)c1cncn12)[C@@H]1COCc2cc(C#CC3(C)COC3)ccc21` [Ff-530, (S)-4-amino-7-fluoro-N-methyl-N-(7-((3-methyloxetan-3-yl)ethynyl)isochroman-4-yl)imidazo[1,5-a]quinoxaline-8-carboxamide], the CC50 is < 100 nM.

Consider `COC1(C#Cc2ccc3c(c2)OC[C@H]3N(C)C(=O)c2ccc3nc(N)c4cncn4c3c2)CC1` [Ff-531, (S)-4-amino-N-(6-((1-methoxycyclopropyl)ethynyl)-2,3-dihydrobenzofuran-3-yl)-N-methylimidazo[1,5-a]quinoxaline-8-carboxamide], for which the half-maximal cytotoxic concentration (CC50) lay in the range of 100 to 1000 nM.

As to `C[C@H](c1ccc(C(F)(F)F)cn1)N(C)C(=O)c1cc2c(cc1F)nc(N)c1cncn12` [Ff-532, (R)-4-amino-7-fluoro-N-methyl-N-(1-(5-(trifluoromethyl)pyridin-2-yl)ethyl)imidazo[1,5-a]quinoxaline-8-carboxamide], the CC50 was < 100 nM.

Turning to `C[C@@H](c1ccc(C(F)(F)F)cc1F)N(C)C(=O)c1cc2c(cc1F)nc(N)c1cncn12` [Ff-533, (S)-4-amino-7-fluoro-N-(1-(2-fluoro-4-(trifluoromethyl)phenyl)ethyl)-N-methylimidazo[1,5-a]quinoxaline-8-carboxamide], the CC50 was 100 to 1000 nM.

Consider `C[C@H](c1ccc(C(F)(F)F)cc1F)N(C)C(=O)c1cc2c(cc1F)nc(N)c1cncn12` [Ff-534, (R)-4-amino-7-fluoro-N-(1-(2-fluoro-4-(trifluoromethyl)phenyl)ethyl)-N-methylimidazo[1,5-a]quinoxaline-8-carboxamide], for which the CC50 is < 100 nM.

As for `COc1cc(C(F)(F)F)ccc1[C@@H](C)N(C)C(=O)c1cc2c(cc1F)nc(N)c1cncn12` [Ff-535, (R)-4-amino-7-fluoro-N-(1-(2-methoxy-4-(trifluoromethyl)phenyl)ethyl)-N-methylimidazo[1,5-a]quinoxaline-8-carboxamide], the CC50 was 100 to 1000 nM.

On to `COc1cc(C(F)(F)F)ccc1[C@H](C)N(C)C(=O)c1cc2c(cc1F)nc(N)c1cncn12` [Ff-536, (S)-4-amino-7-fluoro-N-(1-(2-methoxy-4-(trifluoromethyl)phenyl)ethyl)-N-methylimidazo[1,5-a]quinoxaline-8-carboxamide], for which the half-maximal cytotoxic concentration (CC50) lay within 100 to 1000 nM.

With `C[C@H](c1ncc(C(F)(F)F)cc1F)N(C)C(=O)c1cc2c(cc1F)nc(N)c1cncn12` [Ff-537, (R)-4-amino-7-fluoro-N-(1-(3-fluoro-5-(trifluoromethyl)pyridin-2-yl)ethyl)-N-methylimidazo[1,5-a]quinoxaline-8-carboxamide], the CC50 is < 100 nM.

Consider `CCN(C(=O)c1cc2c(cc1F)nc(N)c1cncn12)[C@H](C)c1ncc(C(F)(F)F)cc1F` [Ff-538, (R)-4-amino-N-ethyl-7-fluoro-N-(1-(3-fluoro-5-(trifluoromethyl)pyridin-2-yl)ethyl)imidazo[1,5-a]quinoxaline-8-carboxamide], for which the half-maximal cytotoxic concentration (CC50) is < 100 nM.

Regarding `Nc1nc2cc(F)c(C(=O)N3CCO[C@@H]4Cc5cc(C(F)(F)F)cc(F)c5[C@@H]43)cc2n2cncc12` [Ff-539, (4-amino-7-fluoroimidazo[1,5-a]quinoxalin-8-yl)((4aS,9aR)-5-fluoro-7-(trifluoromethyl)-2,3,9,9a-tetrahydroindeno[2,1-b][1,4]oxazin-4(4aH)-yl)methanone], the CC50 was < 100 nM.

For `Nc1nc2cnc(C(=O)N3CCO[C@@H]4Cc5cc(C(F)(F)F)cc(F)c5[C@@H]43)cc2n2cncc12` [Ff-540, (4-aminoimidazo[1,5-a]pyrido[3,4-e]pyrazin-8-yl)((4aS,9aR)-5-fluoro-7-(trifluoromethyl)-2,3,9,9a-tetrahydroindeno[2,1-b][1,4]oxazin-4(4aH)-yl)methanone], the 50% cytotoxic concentration (CC50) is 100 to 1000 nM.

In the case of `CN(C(=O)c1cc2c(cc1F)nc(N)c1cncn12)[C@H](CC1CC1)c1ccc(C(F)(F)F)cn1` [Ff-541, (R)-4-amino-N-(2-cyclopropyl-1-(5-(trifluoromethyl)pyridin-2-yl)ethyl)-7-fluoro-N-methylimidazo[1,5-a]quinoxaline-8-carboxamide], the CC50 lay within 100 to 1000 nM.
